Earlier results as cited in patent US8425924B2, “Propylene compositions containing a pyrethroid and products made therefrom” (ExxonMobil Chemical Patents Inc., priority 2009, dated 2013).

Conditions: thermal stability of the pyrethroid

| SMILES | stable up to a temperature |
| --- | --- |
| C=CCC1=C(C)C(OC(=O)[C@@H]2[C@@H](C=C(C)C)C2(C)C)CC1=O (some centres unmarked) [allethrin I] | more than 400 °C |
| CC1(C)[C@H](C(=O)O[C@H](C#N)c2cccc(Oc3ccccc3)c2)[C@@H]1C=C(Br)Br [deltamethrin] | up to 320 °C |
